Reference: patent US4230846A, “1,5-Carbamates of fortimicin B and derivatives” (Abbott Laboratories, priority 1979, dated 1980)
Counter-ions that a name gives are not always drawn. Like-named read-outs stand apart in the source and are kept apart here. Each block holds one molecule with its values, some of them ahead of it.

Key:
[1] = tested on: E coli 76-2; assay: In vitro antimicrobial activity, 2-fold agar dilution; assay type: cell-based; details: Mueller-Hinton agar, 37° C., 24 hours
Experimental: (§1) 21, 1977. The in vitro activity of 2-deoxyfortimicin As set forth in Table I. The in vitro activity of 2-deoxyfortiicin A tetrahydrochloride, fortimicin A disulfate and fortimicin A tetrahydrochloride were determined using a 2-fold agar dilution method using 10 ml per petri plate of Mueller-Hinton agar. The agar was inoculated with one loopful (0.001 ml/loop) of a 1:10 dilution of a 24 hour broth culture of the indicated test organism and incubated at 37° C. for 24 hours.

[2] = tested on: Psuedo. aeruginosa KY 8516; assay: as above; assay type: cell-based
Experimental: as §1

MIC ([1]; read-out: Minimum inhibitory concentration): 3.1 µg/mL
MIC ([2]; Psuedo. aeruginosa KY 8516, Mueller-Hinton agar, 37° C., 24 hours, read-out: Minimum inhibitory concentration): 50 µg/mL
Compound: COC1CC(N)C(OC2OC(C(C)N)CCC2N)C(O)C1N(C)C(=O)CN (centres unmarked) [2-deoxyfortimicin A tetrahydrochloride]

Compound: COC1C(O)C(N)C(OC2OC(C(C)N)CCC2N)C(O)C1N(C)C(=O)CN (centres unmarked) [Fortimicin A disulfate, fortimicin A disulfate]
MIC ([2]; 24 h, read-out: Minimum inhibitory concentration, Psuedo. aeruginosa KY 8516, Mueller-Hinton agar, 37° C.): 50 µg/mL

Compound: COC1C(O)C(N)C(OC2OC(C(C)N)CCC2N)C(O)C1N(C)C(=O)CN (centres unmarked) [Fortimicin A tetrahydrochloride, fortimicin A tetrahydrochloride]
Minimum inhibitory concentration [1]: 3.1 µg/mL
Minimum inhibitory concentration ([2]; Psuedo. aeruginosa KY 8516, Mueller-Hinton agar, 37° C., 24 hours): 100 µg/mL
